# Data: ChEMBL document CHEMBL1201862, “PubChem BioAssay data set” (2004)
#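 Test compounds were applied to cells in 96-well plates for 48 hours at 5 doses. At the GI50, growth is halved.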 Active and inactive are the calls of the source. Cut-off read from the data, not from the text of the source: active = GI50 up to about 1.1 µM and inactive = higher.
# Legend:
# Test in all cases: growth of human tumour cells (NCI), 48 h
# 786-0 = test system: 786-0
# A498 = test system: A498
# A549 = test system: A549
# ACHN = test system: ACHN
# BT-549 = test system: BT-549
# CAKI-1 = test system: CAKI-1
# CCRF-CEM = test system: CCRF-CEM
# COLO 205 = test system: COLO 205
# DU-145 = test system: DU-145
# EKVX = test system: EKVX
# HCC 2998 = test system: HCC 2998
# HCT-116 = test system: HCT-116
# HCT-15 = test system: HCT-15
# HL-60 = test system: HL-60
# HOP-62 = test system: HOP-62
# HOP-92 = test system: HOP-92
# HT-29 = test system: HT-29
# Hs-578T = test system: Hs-578T
# IGROV-1 = test system: IGROV-1
# K562 = test system: K562
# KM12 = test system: KM12
# LOX IMVI = test system: LOX IMVI
# M14 = test system: M14
# MCF7 = test system: MCF7
# MDA-MB-231 = test system: MDA-MB-231
# MDA-MB-435 = test system: MDA-MB-435
# MDA-N = test system: MDA-N
# MOLT-4 = test system: MOLT-4
# Malme-3M = test system: Malme-3M
# NCI-H226 = test system: NCI-H226
# NCI-H23 = test system: NCI-H23
# NCI-H460 = test system: NCI-H460
# NCI-H522 = test system: NCI-H522
# NCI/ADR-RES = test system: NCI/ADR-RES
# OVCAR-3 = test system: OVCAR-3
# OVCAR-4 = test system: OVCAR-4
# OVCAR-5 = test system: OVCAR-5
# OVCAR-8 = test system: OVCAR-8
# PC-3 = test system: PC-3
# RPMI-8226 = test system: RPMI-8226
# RXF 393 = test system: RXF 393
# SF-268 = test system: SF-268
# SF-295 = test system: SF-295
# SF-539 = test system: SF-539
# SK-MEL-28 = test system: SK-MEL-28
# SK-MEL-2 = test system: SK-MEL-2
# SK-MEL-5 = test system: SK-MEL-5
# SK-OV-3 = test system: SK-OV-3
# SN12C = test system: SN12C
# SNB-19 = test system: SNB-19
# SNB-75 = test system: SNB-75
# SR = test system: SR
# SW-620 = test system: SW-620
# T47D = test system: T47D
# TK-10 = test system: TK-10
# U-251 = test system: U-251
# UACC-257 = test system: UACC-257
# UACC-62 = test system: UACC-62
# UO-31 = test system: UO-31
compound,measurement,setting,value
COc1cc2c(cc1OC)C(=O)/C(=C/c1ccccc1)C2,GI50,786-0,90.6 µM (inactive)
same,GI50,A498,4.54 µM (inactive)
same,GI50,A549,> 100 µM (inactive)
same,GI50,ACHN,> 100 µM (inactive)
same,GI50,BT-549,> 100 µM (inactive)
same,GI50,CAKI-1,> 100 µM (inactive)
same,GI50,CCRF-CEM,27.5 µM (inactive)
same,GI50,COLO 205,> 100 µM (inactive)
same,GI50,DU-145,> 94.2 µM (inactive)
same,GI50,EKVX,> 100 µM (inactive)
same,GI50,HCC 2998,78.3 µM (inactive)
same,GI50,HCT-116,48 µM (inactive)
same,GI50,HCT-15,> 82 µM
same,GI50,HL-60,16.9 µM (inactive)
same,GI50,HOP-62,52.5 µM (inactive)
same,GI50,HOP-92,> 70 µM (inactive)
same,GI50,HT-29,45.3 µM (inactive)
same,GI50,Hs-578T,> 100 µM (inactive)
same,GI50,IGROV-1,> 67 µM (inactive)
same,GI50,K562,11.9 µM (inactive)
same,GI50,KM12,60.8 µM (inactive)
same,GI50,LOX IMVI,86.5 µM (inactive)
same,GI50,M14,> 62.5 µM (inactive)
same,GI50,MCF7,> 71.3 µM (inactive)
same,GI50,MDA-MB-231,> 100 µM (inactive)
same,GI50,MDA-MB-435,> 87.7 µM (inactive)
same,GI50,MDA-N,> 93.8 µM (inactive)
same,GI50,MOLT-4,16.3 µM (inactive)
same,GI50,Malme-3M,> 83 µM (inactive)
same,GI50,NCI-H226,> 81.8 µM (inactive)
same,GI50,NCI-H23,> 74.8 µM (inactive)
same,GI50,NCI-H460,53.7 µM (inactive)
same,GI50,NCI-H522,47 µM (inactive)
same,GI50,NCI/ADR-RES,> 66.2 µM (inactive)
same,GI50,OVCAR-3,> 100 µM (inactive)
same,GI50,OVCAR-4,> 85.5 µM (inactive)
same,GI50,OVCAR-5,> 100 µM (inactive)
same,GI50,OVCAR-8,> 100 µM (inactive)
same,GI50,PC-3,> 58.9 µM (inactive)
same,GI50,RPMI-8226,19.1 µM (inactive)
same,GI50,RXF 393,> 34.8 µM (inactive)
same,GI50,SF-268,73.3 µM (inactive)
same,GI50,SF-295,76.9 µM (inactive)
same,GI50,SF-539,43.6 µM (inactive)
same,GI50,SK-MEL-28,> 100 µM (inactive)
same,GI50,SK-MEL-2,> 100 µM (inactive)
same,GI50,SK-MEL-5,37.2 µM (inactive)
same,GI50,SK-OV-3,> 100 µM (inactive)
same,GI50,SN12C,> 100 µM (inactive)
same,GI50,SNB-19,> 100 µM (inactive)
same,GI50,SNB-75,> 39.4 µM (inactive)
same,GI50,SR,29.4 µM (inactive)
same,GI50,SW-620,94 µM (inactive)
same,GI50,T47D,63.5 µM (inactive)
same,GI50,TK-10,> 100 µM (inactive)
same,GI50,U-251,> 100 µM (inactive)
same,GI50,UACC-257,> 100 µM (inactive)
same,GI50,UACC-62,30.5 µM (inactive)
same,GI50,UO-31,> 83.8 µM (inactive)
CCOC(=O)c1cccc(/N=N/Nc2cccc(C(=O)OCC)c2)c1,GI50,786-0,17.9 µM (inactive)
same,GI50,A498,30.8 µM (inactive)
same,GI50,A549,74.5 µM (inactive)
same,GI50,ACHN,53.8 µM (inactive)
same,GI50,BT-549,> 100 µM (inactive)
same,GI50,CAKI-1,42 µM (inactive)
same,GI50,CCRF-CEM,> 100 µM (inactive)
same,GI50,COLO 205,> 100 µM (inactive)
same,GI50,DU-145,> 100 µM (inactive)
same,GI50,EKVX,57.8 µM (inactive)
same,GI50,HCC 2998,> 100 µM (inactive)
same,GI50,HCT-116,31.9 µM (inactive)
same,GI50,HCT-15,> 100 µM
same,GI50,HL-60,> 100 µM (inactive)
same,GI50,HOP-62,9.12 µM (inactive)
same,GI50,HOP-92,22.3 µM (inactive)
same,GI50,HT-29,52.8 µM (inactive)
same,GI50,Hs-578T,30.8 µM (inactive)
same,GI50,IGROV-1,38.9 µM (inactive)
same,GI50,K562,71.4 µM (inactive)
same,GI50,KM12,> 100 µM (inactive)
same,GI50,LOX IMVI,> 100 µM (inactive)
same,GI50,M14,> 100 µM (inactive)
same,GI50,MCF7,61.7 µM (inactive)
same,GI50,MDA-MB-231,17.8 µM (inactive)
same,GI50,MDA-MB-435,16.4 µM (inactive)
same,GI50,MDA-N,5.66 µM (inactive)
same,GI50,MOLT-4,> 100 µM (inactive)
same,GI50,Malme-3M,43.8 µM (inactive)
same,GI50,NCI-H226,43.5 µM (inactive)
same,GI50,NCI-H23,43.2 µM (inactive)
same,GI50,NCI-H460,64 µM (inactive)
same,GI50,NCI-H522,23.9 µM (inactive)
same,GI50,NCI/ADR-RES,56.9 µM (inactive)
same,GI50,OVCAR-3,26.8 µM (inactive)
same,GI50,OVCAR-4,20.9 µM (inactive)
same,GI50,OVCAR-5,78.7 µM (inactive)
same,GI50,OVCAR-8,25.5 µM (inactive)
same,GI50,PC-3,34.4 µM (inactive)
same,GI50,RPMI-8226,> 100 µM (inactive)
same,GI50,RXF 393,19.1 µM (inactive)
same,GI50,SF-268,27 µM (inactive)
same,GI50,SF-295,15.6 µM (inactive)
same,GI50,SF-539,14.2 µM (inactive)
same,GI50,SK-MEL-28,> 100 µM (inactive)
same,GI50,SK-MEL-2,34.2 µM (inactive)
same,GI50,SK-MEL-5,23.4 µM (inactive)
same,GI50,SK-OV-3,28.7 µM (inactive)
same,GI50,SN12C,30.1 µM (inactive)
same,GI50,SNB-19,20.6 µM (inactive)
same,GI50,SNB-75,14.6 µM (inactive)
same,GI50,SR,1.09 µM (active)
same,GI50,SW-620,68.7 µM (inactive)
same,GI50,T47D,> 100 µM (inactive)
same,GI50,TK-10,27.5 µM (inactive)
same,GI50,U-251,20.1 µM (inactive)
same,GI50,UACC-257,56.9 µM (inactive)
same,GI50,UACC-62,71.8 µM (inactive)
same,GI50,UO-31,17.7 µM (inactive)
COc1ccc2nc3cc(Cl)ccc3c(NCCCN(C)CCCNc3ccc4ncn5c6ccccc6c(=O)c3c45)c2c1,GI50,786-0,0.0333 µM (active)
same,GI50,A498,4.22 µM (inactive)
same,GI50,A549,0.0321 µM (active)
same,GI50,ACHN,0.0102 µM (active)
same,GI50,BT-549,0.0822 µM (active)
same,GI50,CAKI-1,0.184 µM (active)
same,GI50,CCRF-CEM,0.228 µM (active)
same,GI50,COLO 205,0.0391 µM (active)
same,GI50,DU-145,0.587 µM (active)
same,GI50,EKVX,0.637 µM (active)
same,GI50,HCC 2998,0.0103 µM (active)
same,GI50,HCT-116,0.0025 µM (active)
same,GI50,HCT-15,0.0476 µM
same,GI50,HL-60,0.0226 µM (active)
same,GI50,HOP-62,0.817 µM (active)
same,GI50,HOP-92,3.26 µM (inactive)
same,GI50,HT-29,0.0025 µM (active)
same,GI50,Hs-578T,3.99 µM (inactive)
same,GI50,IGROV-1,0.0374 µM (active)
same,GI50,K562,0.00383 µM (active)
same,GI50,KM12,0.123 µM (active)
same,GI50,LOX IMVI,0.116 µM (active)
same,GI50,M14,0.558 µM (active)
same,GI50,MCF7,0.0525 µM (active)
same,GI50,MDA-MB-231,0.108 µM (active)
same,GI50,MDA-MB-435,0.183 µM (active)
same,GI50,MDA-N,0.0817 µM (active)
same,GI50,MOLT-4,0.00264 µM (active)
same,GI50,Malme-3M,2.69 µM (inactive)
same,GI50,NCI-H226,0.395 µM (active)
same,GI50,NCI-H23,1.18 µM (inactive)
same,GI50,NCI-H460,0.0157 µM (active)
same,GI50,NCI-H522,0.0264 µM (active)
same,GI50,NCI/ADR-RES,1.26 µM (inactive)
same,GI50,OVCAR-3,1.57 µM (inactive)
same,GI50,OVCAR-4,0.0897 µM (active)
same,GI50,OVCAR-5,3.09 µM (inactive)
same,GI50,OVCAR-8,0.163 µM (active)
same,GI50,PC-3,0.547 µM (active)
same,GI50,RPMI-8226,0.0656 µM (active)
same,GI50,RXF 393,0.0536 µM (active)
same,GI50,SF-268,0.246 µM (active)
same,GI50,SF-295,0.169 µM (active)
same,GI50,SF-539,0.0861 µM (active)
same,GI50,SK-MEL-28,2.61 µM (inactive)
same,GI50,SK-MEL-2,3.3 µM (inactive)
same,GI50,SK-MEL-5,0.366 µM (active)
same,GI50,SK-OV-3,2.72 µM (inactive)
same,GI50,SN12C,0.0302 µM (active)
same,GI50,SNB-19,0.269 µM (active)
same,GI50,SNB-75,2.38 µM (inactive)
same,GI50,SR,0.019 µM (active)
same,GI50,SW-620,0.00573 µM (active)
same,GI50,T47D,4.15 µM (inactive)
same,GI50,TK-10,0.148 µM (active)
same,GI50,U-251,0.0478 µM (active)
same,GI50,UACC-257,0.973 µM (active)
same,GI50,UACC-62,1.92 µM (inactive)
same,GI50,UO-31,0.488 µM (active)
